Columns and labels:
MCF-7 cells = assay: MCF-7 cell proliferation measurement (MTT) for examining estrogenic activity; assay type: cell-based, human; conditions: 4 days, 570 nm
Procedure: (3) MCF-7 Cell Proliferation Measurement for Examining Estrogenic Activity:
Stimulation of MCF-7 cell proliferation induced by estrogenic activity of each test compound was measured.
MCF-7 cells were cultured in 10% fetal bovine serum (FBS)-containing RPMI 1640 medium which was free from Phenol Red, using a 75 cm^2 culture flask. Then the medium was changed to RPMI 1640 medium containing 10% of FBS from which emdogenous steroid had been eliminated by charcoal treatment but containing no Phenol Red. Renewing the medium every two days, the culture was continued for 4 days. By this step estrogen was removed from the MCF-7 cells.
The MCF-7 cells were seeded on 96-well plates, 2,000 cells per well, and cultured for 24 hours to immobilize the cells on the plate. After the cell immobilization, the medium in each well was changed to RPMI 1640 medium containing 10^−6M test compound and 10% of charcoal-treated FBS but containing no Phenol Red, and the culture was continued for further 4 days, during which the medium was changed every day to one newly prepared before the use. Also control wells to which no test compound was added were provided.
After the end of the culture, the cell proliferation was measured by MTT (3-(4,5-dimethylthiazol-2-yl)-2,5-diphenyl-2H-tetrazolium bromide; Sigma-Aldrich Japan Co.) method. That is, an MTT solution as dissolved in PBS at a concentration of 5 mg/mL was added to the 96-well plate accommodating the cells, at a rate of 10 μL/well, followed by 2 hours' incubation at 37° C. After the end of the incubation, the medium was removed and the formazan which was taken into the cells and changed was dissolved with 100 μL of dimethylsulfoxide. Absorbance of the formazan was measured at wavelength 570 nm, using a microplate reader, subtracting the 630 nm background.
As shown by the Table 3, absorbance values of the wells to which the test compounds were added were invariably less than 150% of the absorbance of the control well, and it was confirmed that the test compounds were free of estrogenic activity.

steroid sulfatase [1] = target: T1, steroid sulfatase (Homo sapiens, UniProt P08842); assay: Steroid sulfatase inhibitory activity (in vitro), microsomal fraction of MCF-7 cells, [3H]estrone-3-sulfate hydrolysis; assay type: biochemical; set-up: microsomal fraction of MCF-7 human breast cancer cells was used; endogenous in cells; host or cells: MCF-7 human breast cancer cells (microsomal fraction); conditions: MCF-7 microsomal fraction, 37° C., 30 minutes; for Inhibitory rate (%) (10^−6 M): 10^−6 M test compound; for Inhibitory rate (%) (10^−7 M): 10^−7 M test compound
T1 sequence (P08842 22-583): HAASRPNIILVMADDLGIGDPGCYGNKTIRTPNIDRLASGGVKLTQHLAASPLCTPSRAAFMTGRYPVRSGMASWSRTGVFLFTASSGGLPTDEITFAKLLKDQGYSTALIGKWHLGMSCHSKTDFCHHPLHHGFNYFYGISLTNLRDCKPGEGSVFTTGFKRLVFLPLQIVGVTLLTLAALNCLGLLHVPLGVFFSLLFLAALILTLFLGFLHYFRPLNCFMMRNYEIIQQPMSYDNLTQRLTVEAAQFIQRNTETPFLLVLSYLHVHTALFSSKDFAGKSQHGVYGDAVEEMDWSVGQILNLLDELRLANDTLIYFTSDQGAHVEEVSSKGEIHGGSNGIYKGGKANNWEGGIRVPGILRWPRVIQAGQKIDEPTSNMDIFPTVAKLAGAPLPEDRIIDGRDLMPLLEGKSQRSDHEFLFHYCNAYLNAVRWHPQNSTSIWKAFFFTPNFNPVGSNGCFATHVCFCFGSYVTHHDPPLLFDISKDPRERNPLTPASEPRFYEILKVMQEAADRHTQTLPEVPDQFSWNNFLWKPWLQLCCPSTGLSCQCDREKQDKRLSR
Procedure: (1) Measurement of Steroid Sulfatase Inhibitory Activity (in vitro):
As the source of steroid sulfatase enzyme, microsomal fraction of MCF-7 human breast cancer cells was used.
To phosphate buffered saline (PBS), one of the test compounds, the microsomal fraction and 50 μL of 60 μM estrone-3-sulfate containing about 100 nCi of [6,7-^3H]estrone-3-sulfate (purchased from Perkin Elmer Life Sciences, Boston, Mass., USA; specific activity, 40-60 Ci/mmol) were added to make the total amount of the reaction system 150 μL, which was incubated at 37° C. for 30 minutes. After the incubation, 50 μL of PBS containing about 2 nCi of [4-^14C] estrone (purchased from Perkin Elmer Life Sciences, Boston, Mass., USA; specific activity 45-60 mCi/mmol) was added and stirred. Further 800 μL of toluene was added, and the whole system was thoroughly shaken for 30 seconds, followed by centrifugation at 2,000×g for 10 minutes to separate the acqueous phase from the organic phase. A part (400 μL) of the organic phase was taken and measured of its ^3H and ^14C contents with scintillation spectrometer.
The mass of hydrolyzed [6,7-^3H]estrone-3-sulfate was calculated from the count number of the obtained ^3H (as corrected regarding the amount of the used organic phase and the recovered amount of [4-^14C]estrone) and the specific activity of the substrate ([6,7-^3H]estrone-3-sulfate) to determine the steroid sulfatase inhibitory rate of each test compound.

steroid sulfatase [2] = target: T2, steroid sulfatase (Rattus norvegicus, UniProt P15589); assay: Steroid sulfatase inhibitory activity (in vivo), liver and uterus of ovariectomized rats after oral dosing; conditions: 0.5 mg/kg p.o. once a day for seven days, ovariectomized female SD rats
T2 construct: The livers and uteri were separately minced with scissors and suspended in cooled PBS containing 250 mM sucrose; from tissue; host or cells: liver and uterus of ovariectomized female SD rats (2,000 x g supernatant of homogenate)
T2 sequence (P15589 20-577): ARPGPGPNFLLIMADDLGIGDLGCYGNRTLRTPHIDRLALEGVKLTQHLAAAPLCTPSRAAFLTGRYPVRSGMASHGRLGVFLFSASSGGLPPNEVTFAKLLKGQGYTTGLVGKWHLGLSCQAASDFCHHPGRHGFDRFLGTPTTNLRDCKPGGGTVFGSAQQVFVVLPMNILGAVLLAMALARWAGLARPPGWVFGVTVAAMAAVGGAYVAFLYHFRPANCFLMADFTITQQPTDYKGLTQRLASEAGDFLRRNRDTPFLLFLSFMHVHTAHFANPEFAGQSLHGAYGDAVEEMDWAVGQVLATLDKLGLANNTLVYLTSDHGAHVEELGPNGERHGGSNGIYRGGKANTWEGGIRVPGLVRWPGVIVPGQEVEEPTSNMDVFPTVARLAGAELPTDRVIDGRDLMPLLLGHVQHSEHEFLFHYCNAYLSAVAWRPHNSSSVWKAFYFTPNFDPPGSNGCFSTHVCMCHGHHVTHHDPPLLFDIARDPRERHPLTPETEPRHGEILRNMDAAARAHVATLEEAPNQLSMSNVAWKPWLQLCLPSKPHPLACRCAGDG
Procedure: (2) Measurement of Steroid Sulfatase Inhibitory Activity (in vivo):
To six/group of female SD rats which had undergone ovariectomy, the test compounds as each suspended in 0.5% polyoxyethylene (20) sorbitan monooleate (Tween 80) were orally administered once a day for seven days. On the next day of the last administration, the rats were sacrificed under ether anesthesia. The bodies were anatomized and their livers and uteri were extracted, which were washed with cooled PBS and stored below −70° C. The livers and uteri were separately minced with scissors and suspended in cooled PBS containing 250 mM sucrose. Each of the suspensions was homogenized with a homogenizer under cooling with ice, from which neclei and cell debris were eliminated by centrifugation at 2,000×g for 20 minutes (4° C.). Protein concentration of each of the supernatant was measured by Bradford's method (Anal. Biochem., 72, 248-254 (1976)).
To 2-200 μg of the supernatant protein mass and 50 μL of 60 μM estrone-3-sulfate containing about 100 nCi of [6,7-^3H]estrone-3-sulfate (purchased from Perkin Elmer Life Sciences, Boston, Mass., U.S.A.; specific activity, 40-60 Ci/mmol), PBS was added to make the total amount 150 μL, followed by incubation at 37° C. for 30 minutes. After the incubation, the amount of hydrolyzed [6,7-^3H]estrone-3-sulfate was calculated by a method similar to the in vitro measurement in (1) above. Also steroid sulfatase activity per mg of the protein was calculated, and from the amount of the hydrolyzed [6,7-^3H]estrone-3-sulfate and the calculated steroid sulfatase activity per mg of the protein, the tested compound's steroid sulfatase inhibitory rate was determined.

[3] = background statement; cited from earlier work
steroid sulfatase [4] = target: T1, steroid sulfatase; conditions: background statement; cited from earlier work

Structure (SMILES)	Absorbance relative to that of the control well (10^−6 M, %) (MCF-7 cells)	Inhibitory rate (%) (10^−6 M) (steroid sulfatase [1])	Inhibitory rate (%) (10^−7 M) (steroid sulfatase [1])	Inhibitiory rate (0.5 mg/kg, p.o., %) Liver (steroid sulfatase [2])	Inhibitiory rate (0.5 mg/kg, p.o., %) Uterus (steroid sulfatase [2])	estrogenic activity [3]	steroid sulfatase inhibiting activity (steroid sulfatase [4])
CCCCCCCCS(=O)(=O)N1CCN(c2cc(F)c(OS(N)(=O)=O)cc2F)CC1 [Example 52, 2,5-difluoro-4-[4-(octylsulfonyl)piperazin-1-yl]phenyl-O-sulfamate]	112.0%	100.0%	99.3%				
NS(=O)(=O)Oc1cc(F)c(N2CCN(S(=O)(=O)Cc3ccc(Cl)cc3)CC2)cc1F [Example 56, 4-[(4-chlorobenzylsulfonyl)piperazin-1-yl]-2,5-difluorophenyl-O-sulfamate]		99.9%	98.4%	99.37%	99.81%		
NS(=O)(=O)Oc1cc(F)c(N2CCN(CCc3ccccc3)CC2)cc1F [Example 43, 2,5-difluoro-4-(4-phenethylpiperazin-1-yl)phenyl-O-sulfamate]	101.1%	98.5%	87.0%	99.90%	99.98%		
C[C@]12CC[C@@H]3c4ccc(OS(N)(=O)=O)cc4CC[C@H]3[C@@H]1CCC2=O [EMATE, estrone-3-sulfamate]						potent estrogenic activity	potent steroid sulfatase inhibiting activity
Cc1cc(=O)oc2cc(OS(N)(=O)=O)ccc12 [COUMATE, 4-methylcoumarin-7-sulfamate]						free from estrogenic activity	low level of steroid sulfatase inhibiting activity
NS(=O)(=O)Oc1cc(F)c(N2CCN(CCCC3CCCCC3)CC2)cc1F [Example 45, 4-[4-(3-cyclohexylpropyl)piperazin-1-yl]-2,5-difluorophenyl-O-sulfamate]	91.4%	98.5%	88.6%	99.09%	99.32%		
NS(=O)(=O)Oc1ccc(N2CCN(CCc3ccc(Cl)cc3)CC2)cc1F [Example 22, 4-[4-[2-(4-chlorophenyl)ethyl]piperazin-1-yl]-2-fluorophenyl-O-sulfamate]	74.6%	97.3%	85.0%	99.85%	99.98%		
NS(=O)(=O)Oc1cc(F)c(N2CCC(CCCc3ccccc3)CC2)cc1F [Example 37, 2,5-difluoro-4-[4-(3-phenylpropyl)piperidino]phenyl-O-sulfamate]	89.5%	98.9%	93.6%	99.85%	99.95%		
NS(=O)(=O)Oc1cc(F)c(N2CCC(CCCc3ccccc3)CC2)cc1F.O=S(=O)(O)c1ccccc1 [Example 59, 2,5-difluoro-4-[4-(3-phenylpropyl)piperidino]phenyl-O-sulfamate benzenesulfonate]	105.3%	99.0%	95.4%	100.00%	100.00%		
NS(=O)(=O)Oc1cc(F)c(N2CCN(S(=O)(=O)c3ccc(Cl)cc3)CC2)cc1F [Example 55, 4-[4-(4-chlorophenylsulfonyl)piperazin-1-yl]-2,5-difluorophenyl-O-sulfamate]	64.6%	100.0%	97.5%				
CCCCCCCCCCCCCC(=O)NCCc1ccc(OS(N)(=O)=O)cc1 [DU-14, 4-(2-myristoylaminoethyl)phenyl sulfamate]						free from estrogenic activity	low level of steroid sulfatase inhibiting activity
CC(C)(C)c1ccc(C(=O)CCCN2CCN(c3cc(F)c(OS(N)(=O)=O)cc3F)CC2)cc1 [Example 48, 4-[4-[4-(4-tert-butylphenyl)-4-oxobutyl]piperazin-1-yl]-2,5-difluorophenyl-O-sulfamate]	112.0%	100.0%	95.9%				
